Measured values reported in article PMC7180948, “New Insights into 4-Anilinoquinazolines as Inhibitors of Cardiac Troponin I–Interacting Kinase (TNNi3K)” (Molecules, 2020).

How the values were obtained:
Test in all cases: biochemical
Parameters in all cases: KINOMEscan competition binding panel (Eurofins DiscoverX), single concentration, % inhibition
Settings in all cases: read-out: 7 at 1 µM % inhibition
BRSK1 = BRSK1 (Homo sapiens, UniProt Q8TDC3)
How it was run: (§1)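 Compounds were submitted at 1 µM to a KINOMEscan assay covering more than 400 human kinases. The screen served to define the selectivity profile.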

CSNK1G2 = CSNK1G2 (Homo sapiens, UniProt P78368)
How it was run: as §1

RIOK1 = RIOK1 (Homo sapiens, UniProt Q9BRS2)
How it was run: as §1

ERN1 = ERN1 (Homo sapiens, UniProt O75460)
How it was run: as §1

EPHA2 = EPHA2 (Homo sapiens, UniProt P29317)
How it was run: as §1

[1] = target: T1, RSK2(Kin.Dom.2-C-terminal) (Homo sapiens, UniProt P51812)
T1 construct: gene RPS6KA3; Kin.Dom.2-C-terminal
How it was run: as §1

CDKL3 = CDKL3 (Homo sapiens, UniProt Q8IVW4)
How it was run: as §1

CLK1 = CLK1 (Homo sapiens, UniProt P49759)
How it was run: as §1

PIK3C2B = PIK3C2B (Homo sapiens, UniProt O00750)
How it was run: as §1

STK16 = STK16 (Homo sapiens, UniProt O75716)
How it was run: as §1

FLT4 = FLT4 (Homo sapiens, UniProt P35916)
How it was run: as §1

EPHA5 = EPHA5 (Homo sapiens, UniProt P54756)
How it was run: as §1

HUNK = HUNK (Homo sapiens, UniProt P57058)
How it was run: as §1

[2] = target: T2, JAK1(JH1domain-catalytic) (Homo sapiens, UniProt P23458)
T2 construct: JH1domain-catalytic
How it was run: as §1

MYO3A = MYO3A (Homo sapiens, UniProt Q8NEV4)
How it was run: as §1

RET(V804M) = RET(V804M) (Homo sapiens, UniProt P07949, V804M)
How it was run: as §1

HASPIN = HASPIN (Homo sapiens, UniProt Q8TF76)
How it was run: as §1

YANK2 = target: T3, YANK2 (Homo sapiens, UniProt Q9NY57)
T3 construct: gene STK32B
How it was run: as §1

ULK3 = ULK3 (Homo sapiens, UniProt Q6PHR2)
How it was run: as §1

YES = target: T4, YES (Homo sapiens, UniProt P07947)
T4 construct: gene YES1
How it was run: as §1

MLCK = target: T5, MLCK (Homo sapiens, UniProt Q32MK0)
T5 construct: gene MYLK3
How it was run: as §1

GRK7 = GRK7 (Homo sapiens, UniProt Q8WTQ7)
How it was run: as §1

TAK1 = target: T6, TAK1 (Homo sapiens, UniProt O43318)
T6 construct: gene MAP3K7
How it was run: as §1

PIP5K2C = target: T7, PIP5K2C (Homo sapiens, UniProt Q8TBX8)
T7 construct: gene PIP4K2C
How it was run: as §1

FLT4, sequence (P35916 whole entry): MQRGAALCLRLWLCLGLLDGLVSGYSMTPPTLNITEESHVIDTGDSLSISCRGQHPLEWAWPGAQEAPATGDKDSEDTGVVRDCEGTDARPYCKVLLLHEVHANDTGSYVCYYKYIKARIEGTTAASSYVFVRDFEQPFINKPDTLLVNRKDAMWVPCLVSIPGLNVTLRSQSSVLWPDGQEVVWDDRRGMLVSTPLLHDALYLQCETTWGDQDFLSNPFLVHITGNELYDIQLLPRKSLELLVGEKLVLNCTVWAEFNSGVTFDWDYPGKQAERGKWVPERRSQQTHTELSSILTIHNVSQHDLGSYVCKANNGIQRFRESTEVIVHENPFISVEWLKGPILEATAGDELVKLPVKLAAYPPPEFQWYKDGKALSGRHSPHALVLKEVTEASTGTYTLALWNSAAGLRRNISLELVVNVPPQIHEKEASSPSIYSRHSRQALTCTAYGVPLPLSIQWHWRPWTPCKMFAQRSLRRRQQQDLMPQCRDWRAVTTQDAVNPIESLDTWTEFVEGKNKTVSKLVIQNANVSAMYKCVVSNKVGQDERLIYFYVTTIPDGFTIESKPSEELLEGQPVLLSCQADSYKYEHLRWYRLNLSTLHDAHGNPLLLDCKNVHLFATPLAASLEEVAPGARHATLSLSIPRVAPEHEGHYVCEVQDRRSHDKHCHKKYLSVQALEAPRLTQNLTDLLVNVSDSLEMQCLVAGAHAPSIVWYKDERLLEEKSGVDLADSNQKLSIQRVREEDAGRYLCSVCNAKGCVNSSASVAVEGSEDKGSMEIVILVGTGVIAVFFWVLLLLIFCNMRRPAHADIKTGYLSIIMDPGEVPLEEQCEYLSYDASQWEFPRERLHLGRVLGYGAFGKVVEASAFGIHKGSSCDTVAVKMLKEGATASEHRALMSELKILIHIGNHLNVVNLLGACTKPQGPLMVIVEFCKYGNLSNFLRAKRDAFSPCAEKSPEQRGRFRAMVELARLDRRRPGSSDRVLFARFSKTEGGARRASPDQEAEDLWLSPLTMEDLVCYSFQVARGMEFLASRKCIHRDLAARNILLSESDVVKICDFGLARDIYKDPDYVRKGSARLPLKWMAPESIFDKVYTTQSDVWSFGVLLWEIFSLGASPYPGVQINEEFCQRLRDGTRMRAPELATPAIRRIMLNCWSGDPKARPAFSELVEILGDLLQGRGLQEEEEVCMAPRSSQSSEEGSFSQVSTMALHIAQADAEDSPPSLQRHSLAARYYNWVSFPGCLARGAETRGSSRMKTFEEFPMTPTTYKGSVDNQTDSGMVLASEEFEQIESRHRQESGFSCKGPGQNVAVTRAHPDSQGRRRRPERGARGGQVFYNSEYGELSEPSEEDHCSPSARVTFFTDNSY
ERN1, sequence (O75460 whole entry): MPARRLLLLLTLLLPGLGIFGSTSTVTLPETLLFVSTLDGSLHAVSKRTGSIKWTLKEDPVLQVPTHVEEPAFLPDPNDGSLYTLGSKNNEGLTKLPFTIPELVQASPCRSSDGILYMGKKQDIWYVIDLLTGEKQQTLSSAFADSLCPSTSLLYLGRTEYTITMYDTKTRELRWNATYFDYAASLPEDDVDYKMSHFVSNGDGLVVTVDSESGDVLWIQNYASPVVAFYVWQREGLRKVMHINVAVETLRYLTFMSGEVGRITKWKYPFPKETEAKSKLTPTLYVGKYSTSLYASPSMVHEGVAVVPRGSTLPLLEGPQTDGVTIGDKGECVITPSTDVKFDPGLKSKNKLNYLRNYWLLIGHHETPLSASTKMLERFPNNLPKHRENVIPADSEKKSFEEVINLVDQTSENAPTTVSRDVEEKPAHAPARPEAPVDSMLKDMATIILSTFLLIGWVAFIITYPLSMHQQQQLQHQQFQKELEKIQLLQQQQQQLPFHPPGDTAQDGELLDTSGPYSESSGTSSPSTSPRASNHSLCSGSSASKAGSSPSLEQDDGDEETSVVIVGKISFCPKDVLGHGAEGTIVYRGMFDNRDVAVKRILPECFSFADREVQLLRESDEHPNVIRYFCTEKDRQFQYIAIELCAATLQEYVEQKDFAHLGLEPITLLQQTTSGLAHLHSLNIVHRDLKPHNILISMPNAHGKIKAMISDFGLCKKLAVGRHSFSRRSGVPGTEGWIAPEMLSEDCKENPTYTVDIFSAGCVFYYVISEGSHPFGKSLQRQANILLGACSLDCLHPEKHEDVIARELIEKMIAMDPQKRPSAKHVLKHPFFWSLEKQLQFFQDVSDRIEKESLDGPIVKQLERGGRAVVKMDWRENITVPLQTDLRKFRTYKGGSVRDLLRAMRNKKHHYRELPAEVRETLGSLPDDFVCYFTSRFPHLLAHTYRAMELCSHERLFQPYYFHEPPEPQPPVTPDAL
RET(V804M), sequence (P07949 whole entry V804M): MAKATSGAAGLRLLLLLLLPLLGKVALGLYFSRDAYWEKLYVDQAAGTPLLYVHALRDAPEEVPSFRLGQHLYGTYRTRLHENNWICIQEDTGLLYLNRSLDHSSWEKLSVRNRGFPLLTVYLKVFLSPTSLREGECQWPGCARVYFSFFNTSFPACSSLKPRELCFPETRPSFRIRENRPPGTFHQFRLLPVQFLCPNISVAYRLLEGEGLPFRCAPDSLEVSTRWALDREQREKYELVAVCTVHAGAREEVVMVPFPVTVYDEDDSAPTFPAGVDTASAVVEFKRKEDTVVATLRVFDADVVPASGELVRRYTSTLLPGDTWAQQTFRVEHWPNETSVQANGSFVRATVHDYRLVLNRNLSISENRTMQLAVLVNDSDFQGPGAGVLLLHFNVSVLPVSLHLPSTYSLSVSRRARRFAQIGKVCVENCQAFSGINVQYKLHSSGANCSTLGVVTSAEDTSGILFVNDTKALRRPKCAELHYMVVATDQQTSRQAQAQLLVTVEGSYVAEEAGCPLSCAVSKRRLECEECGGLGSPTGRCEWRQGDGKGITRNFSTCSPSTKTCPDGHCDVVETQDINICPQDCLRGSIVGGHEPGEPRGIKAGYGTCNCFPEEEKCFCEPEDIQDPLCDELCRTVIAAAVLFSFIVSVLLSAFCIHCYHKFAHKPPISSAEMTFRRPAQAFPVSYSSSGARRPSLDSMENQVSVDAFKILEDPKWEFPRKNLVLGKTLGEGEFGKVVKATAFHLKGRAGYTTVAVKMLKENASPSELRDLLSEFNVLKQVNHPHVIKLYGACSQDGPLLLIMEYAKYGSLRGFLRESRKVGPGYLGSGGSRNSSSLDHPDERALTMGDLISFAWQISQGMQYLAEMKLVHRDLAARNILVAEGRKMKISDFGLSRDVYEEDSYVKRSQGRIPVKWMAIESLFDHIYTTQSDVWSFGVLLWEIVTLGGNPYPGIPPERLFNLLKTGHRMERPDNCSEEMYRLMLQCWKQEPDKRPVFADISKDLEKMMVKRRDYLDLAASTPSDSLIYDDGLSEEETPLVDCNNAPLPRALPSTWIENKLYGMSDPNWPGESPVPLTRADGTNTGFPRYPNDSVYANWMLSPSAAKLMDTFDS
GRK7, sequence (Q8WTQ7 whole entry): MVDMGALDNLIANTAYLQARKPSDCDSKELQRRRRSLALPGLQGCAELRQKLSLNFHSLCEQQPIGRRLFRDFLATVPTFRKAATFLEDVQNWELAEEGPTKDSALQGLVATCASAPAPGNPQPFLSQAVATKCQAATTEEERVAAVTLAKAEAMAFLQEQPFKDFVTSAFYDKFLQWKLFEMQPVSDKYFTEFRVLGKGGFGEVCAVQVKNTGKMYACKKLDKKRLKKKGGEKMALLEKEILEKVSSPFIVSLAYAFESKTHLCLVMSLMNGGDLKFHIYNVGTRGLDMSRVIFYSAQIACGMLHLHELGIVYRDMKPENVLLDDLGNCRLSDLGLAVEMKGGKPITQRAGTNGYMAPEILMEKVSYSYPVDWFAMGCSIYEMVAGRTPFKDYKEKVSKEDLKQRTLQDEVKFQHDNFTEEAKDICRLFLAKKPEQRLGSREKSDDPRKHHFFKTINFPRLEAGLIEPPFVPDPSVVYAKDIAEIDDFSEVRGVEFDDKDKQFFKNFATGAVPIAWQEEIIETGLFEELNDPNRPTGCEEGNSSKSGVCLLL
HASPIN, sequence (Q8TF76 whole entry): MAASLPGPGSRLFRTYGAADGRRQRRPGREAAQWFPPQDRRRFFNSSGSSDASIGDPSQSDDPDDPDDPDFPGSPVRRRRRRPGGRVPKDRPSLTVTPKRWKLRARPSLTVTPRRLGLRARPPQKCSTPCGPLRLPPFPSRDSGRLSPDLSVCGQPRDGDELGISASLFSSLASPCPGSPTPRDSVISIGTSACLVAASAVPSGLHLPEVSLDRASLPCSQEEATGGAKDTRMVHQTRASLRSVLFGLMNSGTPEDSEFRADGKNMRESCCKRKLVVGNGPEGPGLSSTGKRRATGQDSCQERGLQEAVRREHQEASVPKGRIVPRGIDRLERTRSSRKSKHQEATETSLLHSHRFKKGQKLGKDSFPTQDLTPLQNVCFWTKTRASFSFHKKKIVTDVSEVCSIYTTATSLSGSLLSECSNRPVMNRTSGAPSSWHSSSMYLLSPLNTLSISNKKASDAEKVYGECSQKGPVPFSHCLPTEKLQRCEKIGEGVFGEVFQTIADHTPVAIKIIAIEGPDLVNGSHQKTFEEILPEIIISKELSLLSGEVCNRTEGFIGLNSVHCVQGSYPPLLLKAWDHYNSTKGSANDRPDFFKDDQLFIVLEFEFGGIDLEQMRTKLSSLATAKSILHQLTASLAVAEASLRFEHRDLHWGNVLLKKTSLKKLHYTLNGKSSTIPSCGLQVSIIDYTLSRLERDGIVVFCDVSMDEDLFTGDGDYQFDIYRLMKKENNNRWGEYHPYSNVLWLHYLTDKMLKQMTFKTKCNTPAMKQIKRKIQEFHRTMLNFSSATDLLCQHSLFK

## CNS(=O)(=O)c1ccc(N(C)C)c(Nc2ncnc3cc(OC)c(OC)cc23)c1 [compound 7, 3-((6,7-dimethoxyquinazolin-4-yl)amino)-4-(dimethylamino)-N-methylbenzenesulfonamide]
BRSK1
  inhibition at 1 µM: 0%
CSNK1G2
  inhibition at 1 µM: 0%
RIOK1
  inhibition at 1 µM: 0%
ERN1
  inhibition at 1 µM: 0%
EPHA2
  inhibition at 1 µM: 0%
[1]
  inhibition at 1 µM: 33%
CDKL3
  inhibition at 1 µM: 0%
CLK1
  inhibition at 1 µM: 8%
PIK3C2B
  inhibition at 1 µM: 77%
STK16
  inhibition at 1 µM: 0%
FLT4
  inhibition at 1 µM: 0%
EPHA5
  inhibition at 1 µM: 0%
HUNK
  inhibition at 1 µM: 0%
[2]
  inhibition at 1 µM: 0%
MYO3A
  inhibition at 1 µM: 0%
RET(V804M)
  inhibition at 1 µM: 0%
HASPIN
  inhibition at 1 µM: 3%
YANK2
  inhibition at 1 µM: 0%
ULK3
  inhibition at 1 µM: 29%
YES
  inhibition at 1 µM: 0%
MLCK
  inhibition at 1 µM: 0%
GRK7
  inhibition at 1 µM: 23%
TAK1
  inhibition at 1 µM: 51%
PIP5K2C
  inhibition at 1 µM: 0%
